The values that follow come from the NIST ThermoML archive (doi:10.1016/j.jct.2016.04.018).

± gives the expanded uncertainty stated by the source.

The conditions of the data set: 298.15 K; 101.3 kPa; Crystal; flotation method.

By mass density is commonly meant the mass of a sample divided by its volume. Take `O=[N+]([O-])c1ccc(O)c2ncccc12` [5-nitro-8-quinolinol]: the mass density came to 1489.7 ± 2.5 kg/m3.
